Experimental data: the supplement of paper PMC10307832

How the values were obtained:
Assay in all cases: relative viability (nuclei count vs DMSO), 5 days (fraction); higher = more cells survive
[1] = compound: O=c1[nH]cc(F)c(=O)[nH]1 [5-Fluorouracil] + Nc1ncn([C@H]2C[C@H](O)[C@@H](CO)O2)c(=O)n1 [Decitabine] (partner 2 µM)
Summary of the method: (§1)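 A single step with final 0.05% Triton X-100, 1% formaldehyde and 1 ug/ml Hoechst fixed the cells and stained nuclei 5 days after treatment. Lung cancer cell lines in 1536-well plates had been treated by pin tool the day after seeding with one drug alone or a fixed anchor-drug dose plus five library-drug doses (not always all listed) in √10 steps, and nuclei were counted on 4× images. Relative viability is the ratio of nuclei in treated wells to nuclei in vehicle wells, taken as the median of duplicate plates.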

Sulindac + Tozasertib = compound: CC1=C(CC(=O)O)c2cc(F)ccc2/C1=C\c1ccc([S+](C)[O-])cc1 [Sulindac] + Cc1cc(Nc2cc(N3CCN(C)CC3)nc(Sc3ccc(NC(=O)C4CC4)cc3)n2)n[nH]1 [Tozasertib] (partner 0.1 µM)
Summary of the method: as §1

[2] = compound: O=c1[nH]cc(F)c(=O)[nH]1 [5-Fluorouracil] + C[C@]1(O)C[C@@H](c2nc(-c3ccc4ccc(-c5ccccc5)nc4c3)c3c(N)nccn32)C1 [Linsitinib] (partner 1 µM)
Summary of the method: as §1

Staurosporine + OSI-027 = compound: CN[C@@H]1C[C@H]2O[C@@](C)([C@@H]1OC)n1c3ccccc3c3c4c(c5c6ccccc6n2c5c31)C(=O)NC4 [Staurosporine] + COc1cccc2cc(-c3nc([C@H]4CC[C@H](C(=O)O)CC4)n4ncnc(N)c34)[nH]c12 [OSI-027] (partner 0.5 µM)
Summary of the method: as §1

Cell Line | relative viability ([1]; first compound 0.02 µM) | relative viability (Sulindac + Tozasertib; first compound 0.08 µM) | relative viability (Sulindac + Tozasertib; first compound 0.253 µM) | relative viability (Sulindac + Tozasertib; first compound 0.8 µM) | relative viability (Sulindac + Tozasertib; first compound 2.53 µM) | relative viability (Sulindac + Tozasertib; first compound 8 µM) | relative viability ([2]; first compound 0.02 µM) | relative viability ([2]; first compound 0.2 µM) | relative viability ([2]; first compound 0.6325 µM) | relative viability ([2]; first compound 2 µM) | relative viability (Staurosporine + OSI-027; first compound 0.005 µM) | relative viability (Staurosporine + OSI-027; first compound 0.01581 µM) | relative viability (Staurosporine + OSI-027; first compound 0.05 µM) | relative viability (Staurosporine + OSI-027; first compound 0.1581 µM) | relative viability (Staurosporine + OSI-027; first compound 0.5 µM) | relative viability ([1]; first compound 0.2 µM) | relative viability ([1]; first compound 0.6325 µM) | relative viability ([1]; first compound 2 µM)
EKVX | 0.297 | 0.417 | 0.334 | 0.345 | 0.434 | 0.407 | 0.891 | 0.282 | 0.153 | 0.142 | 0.557 | 0.399 | 0.284 | 0.209 | 0.15 | – | – | –
ABC-1 | 1.25 | 0.12 | 0.147 | 0.157 | 0.162 | 0.183 | 0.739 | 0.987 | 0.714 | 0.748 | 0.209 | 0.14 | 0.0972 | 0.0855 | 0.0778 | 0.959 | 0.944 | 0.87
NCI-H647 | 0.367 | 0.35 | 0.364 | 0.481 | 0.566 | 0.448 | 1.05 | 1.32 | 1.16 | 0.701 | 0.29 | 0.123 | 0.149 | 0.0899 | 0.0651 | 0.383 | 0.39 | 0.391
NCI-H1734 | 0.536 | 0.221 | 0.25 | – | 0.295 | 0.286 | 0.762 | 1.05 | 0.706 | 0.546 | 0.456 | 0.245 | 0.209 | 0.13 | 0.0703 | 0.518 | 0.499 | 0.396
LCLC-97TM1 | 0.242 | 0.231 | 0.289 | 0.217 | 0.163 | 0.247 | 0.175 | 0.193 | 0.153 | 0.144 | 0.343 | 0.234 | 0.245 | 0.203 | 0.198 | 0.269 | 0.207 | 0.201
NCI-H1793 | 0.617 | 0.283 | 0.283 | 0.349 | 0.33 | 0.336 | 0.691 | 0.92 | 0.815 | 0.496 | 0.378 | – | 0.174 | 0.0897 | 0.102 | 0.469 | 0.487 | 0.557
NCI-H322M | 0.638 | 0.483 | 0.485 | 0.47 | 0.51 | 0.499 | 0.898 | 0.747 | 0.652 | 0.64 | 0.619 | 0.309 | 0.292 | 0.294 | 0.235 | 0.616 | 0.774 | 0.676
RERF-LC-KJ | 0.66 | 0.569 | 0.56 | 0.521 | 0.307 | 0.568 | 0.832 | 0.775 | 0.792 | 0.764 | 0.475 | 0.3 | 0.234 | 0.234 | 0.181 | 0.762 | 0.776 | 0.736
EPLC-272H | 0.357 | 0.152 | 0.25 | – | 0.25 | 0.408 | 1.1 | 0.9 | – | 0.305 | 0.29 | 0.142 | 0.163 | 0.0783 | 0.0871 | 0.305 | 0.224 | 0.22
A-427 | 0.526 | 0.176 | 0.198 | 0.193 | 0.177 | 0.206 | 1.05 | 1.08 | 1.11 | 0.546 | 0.363 | 0.158 | 0.153 | – | 0.121 | 0.603 | 0.544 | 0.479
